Reference: patent US8063219B2, “Nitrogenous heterocyclic compounds, preparation thereof and use thereof as antibacterial medicaments” (Novexel, priority 2007, dated 2011)
Values after ≈ are worked out from the molar mass of the structure shown.

Tests used:
Assay in all cases: In vitro activity, dilution method in liquid medium (MIC)
Format in all cases: cell-based
[1] = system: Pseudomonas aeruginosa PA01 wild type
Procedure: (§1) A series of tubes are prepared in which equal quantities of sterile nutrient medium are placed, and increasing quantities of the product being studied are placed in each tube then each tube is plated with a bacterial strain. After 24 hours incubation in an oven at 37° C., the growth inhibition is assessed by transillumination, which makes it possible to determine the minimum inhibition concentrations (MIC) expressed in μg/ml.

[2] = system: Pseudomonas aeruginosa strains resisting via β-lactamases; conditions: Resisting via β-lactamases [8 strains]
Procedure: as §1

[3] = system: Pseudomonas aeruginosa strain resisting via porin mutations; conditions: for MIC (μg/ml) 24 h: Resisting via porin mutations [1 strain]
Procedure: as §1

[4] = system: Pseudomonas aeruginosa strains resisting via efflux pumps
Procedure: as §1

[5] = system: Pseudomonas aeruginosa 1771 strains wild type; conditions: for Activity against Pseudomonas aeruginosa (in words): in vitro
Procedure: as §1
Tests are carried out in this way with the products of Examples 1 and 2 and compared with the products of Examples and 19 of application WO 02/100860.

[6] = 1771 strains wild type, 24 h incubation at 37° C.
[7] = Pseudomonas aeruginosa, 24 h, read-out: MIC (μg/ml) 24 h
[8] = Resisting via efflux pumps, second set [5 strains]

Row | Compound | MIC (μg/ml) 24 h [1] [µg/mL] | MIC (μg/ml) 24 h [2] [µg/mL] | MIC (μg/ml) 24 h [3] [µg/mL] | MIC (μg/ml) 24 h ([4]; Resisting via efflux pumps [11/5 strains], set not given) | MIC (μg/ml) 24 h [5, 6] [µg/mL] | MIC ([1]; Pseudomonas aeruginosa, PA01WILDTYPE, 24 h, read-out: MIC (μg/ml) 24 h) [µg/mL] | MIC [2, 7] [µg/mL] | MIC [3, 7] [µg/mL] | MIC [4, 7] [µg/mL] | MIC ([5]; Pseudomonas aeruginosa, 1771 strains wild type, 24 h incubation at 37° C., read-out: MIC (μg/ml) 24 h) [µg/mL] | MIC (μg/ml) 24 h [4, 8] | Activity against Pseudomonas aeruginosa (in words) [5] | MIC (μg/ml) 24 h ([4]; Resisting via efflux pumps, first set [11 strains]) [µg⁻¹ mL⁻¹]
1 | CC(C)(O/N=C(\C(=O)N[C@@H]1C(=O)N2C(C(=O)[O-])=C(C[n+]3ccccc3)CS[C@H]12)c1csc(N)n1)C(=O)O [Ceftazidine, reference compound] | 2 (≈ 3.66 µM) | 2 to 32 | 2 (≈ 3.66 µM) | <=0.03-8 μg/ml | 1 (≈ 1.83 µM) | – | – | – | – | – | – | – | –
2 | C[C@@H](O)[C@H]1C(=O)N2C(C(=O)O)=C(SCCN=CN)C[C@H]12 [Imipenem, reference compound] | – | – | – | – | – | 1 (≈ 3.34 µM) | 2 to 32 (≈ 6.68 to 107 µM) | 16 (≈ 53.4 µM) | 0.25 to 4 (≈ 0.835 to 13.4 µM) | 1 (≈ 3.34 µM) | – | – | –
3 | The sodium and trifluoroacetate salt of trans[[8-(amino-methyl)-4,8-dihydro-6-oxo-5-(sulphooxy)-4,7-methano-7H-pyrazolo[3,4-e][1,3]diazepin-6(5H)-one [Ex 2] | – | 0.25 to 1 | – | – | 0.25 | – | – | – | – | – | —/0.5-1 μg/ml | very active | –
4 | sodium and trifluoroacetate salts of trans[[8-(aminomethyl)-4,8-dihydro-1-methyl-6-oxo-5-(sulfooxy)-4,7-methano-7H-pyrazolo[3,4-e][1,3]diazepin-6(5H)-one [Ex 1] | 1 | 1 to 2 | 2 | – | 0.12 | – | – | – | – | – | 0.25 to 0.5 µg/mL | very active | 0.5 to 4
